Measured values from patent US20260101915A1, “APIGENIN GLYCOSIDES FLAVOR ENHANCERS” (priority 2019, published 2026).

Legend:
pinellic acid formation [1] = assay: Pinellic acid concentration in whole wheat bread (LC/MS/MS)
Method: (§1) The concentration of pinellic acid was analyzed for both control and treatment dough samples using the following method: The 15 mg of dough (or 27 mg of bread) was extracted with 1 mL 1:1 IPA/H2O (v/v) spiked with prostaglandin-F2α ([…]) ISTD. Samples were sonicated for 10 min followed by shaking using the GenoGrinder at 1000 rpm for 10 min. Samples were then diluted 1:50 and sample clean-up was carried out using a 96-well Oasis PRIME HLB plate (1 cc, 30 mg sorbent). After sample load (250 μL) and wash (750 μL, 10% acetonitrile (aq.) with 0.1% formic acid) steps, the retentate was eluted with 500 μL 90% acetonitrile (aq.) with 0.1% formic acid. Samples were further diluted to 2 mL using water with 0.1% formic acid. The standard calibration curve was prepared using 6-points ranging from 0.24 ng/ml to 500 ng/mL.
Quantitative analysis was conducted using MRM acquisition. LC/MS/MS analysis was conducted using a Waters ACQUITY H-class UPLC system coupled with a Xevo TQ-S mass spectrometer (Waters Co.). […]
Wheat breads were made using a modified AACC straight-dough bread-making method (AACC, 1999). […] The concentration of pinellic acid was analyzed for both control and spiking whole wheat bread samples as described for the dough analysis. […]

pinellic acid formation [2] = assay: Pinellic acid concentration in HRW Everest flour dough (LC/MS/MS); conditions: treatment dough (946.5 ng Schaftoside in 12 μL water per 15 mg HRW Everest flour) vs control; pvalue <0.05
Method: For the dough analysis 15 mg of Hard Red Winter (“HRW”) Everest flour was weighed into 2 Eppendorf tubes containing one ¼ inch stainless steel balls, followed by the addition of 12 μL of water (4:5 water/flour ratio) to make a control dough sample. The treatment dough sample was similarly prepared to the control sample with the exception that 946.5 ng of Schaftoside in 12 μL of water (4:5 water/flour ratio) was added instead of pure water.
as §1
Quantitative analysis was conducted using MRM acquisition. […]

[3] = Paired sensory difference test of whole wheat bread bitterness (20 panelists); type: in vivo; conditions: paired comparison, 20 participants, nose clips, bread crumb chewed 10 seconds; Pvalue <0.05
Description: Twenty participants were recruited by Flavor Research and Education Center (FREC) at The Ohio State University. The whole wheat bread samples (control and treatment) were cut into 3 cm×2 cm×1 cm (L×W×H) squares of crumb the day before the test and stored at room temperature in sealed 2 oz cups labeled with a 3-digit codes. Each panelist evaluated one pair of samples containing the control sample and the treatment sample. Panelists used nose clips during the evaluation in order to prevent interactions with olfactory responses. Panelists were instructed to place the entire piece of bread crumb in their mouth, chew for 10 seconds, and evaluate the maximum bitter intensity perceived. After evaluating each sample in the pair, panelists were asked to choose the most bitter sample. The serving order of each bread sample was balanced. Water was used as a palate cleanser.
Compusense Cloud Software version 7.2 (Compusense, Guelph, Canada) was used for data collection. Approval of the sensory evaluation protocol was granted by the Ethics Committee, The Ohio State University (IRB #2019B0402). Paired Student t-tests was executed with SPSS Statistics Version 25 (International Business Machines Corp., Armonk, NY).

O=c1cc(-c2ccc(O)cc2)oc2c([C@@H]3OC[C@H](O)[C@H](O)[C@H]3O)c(O)c([C@@H]3O[C@H](CO)[C@@H](O)[C@H](O)[C@H]3O)c(O)c12 [Schaftoside, schaftoside]
pinellic acid concentration in treatment bread (pinellic acid formation [1]; schaftoside raised from 88.4 to 151.5 mg/kg (68.1 mg/kg flour added) prior to bread making, control bread 308.64 mg/kg, pvalue <0.05): 228.6 mg/kg | reduction in pinellic acid formation (pinellic acid formation [1]; treatment vs control, schaftoside added to flour prior to bread making): 26% | reduction in pinellic acid content (pinellic acid formation [2]): 30% | perceived bitterness of treatment bread vs control bread [3]: significantly less bitter
